Data published in US20230167103A1 (Bayer Aktiengesellschaft, priority 2020, published 2023).

Biological target: T1, human DGKζ (Homo sapiens, UniProt Q13574)
T1 construct: made in house; host or cells: Sf9 insect cells, baculovirus
Assay: Human DGKζ kinase activity inhibition assay (ADP-Glo)
Assay type: biochemical
Conditions: example compounds; recombinant full-length human DGKζ, 1,2-dioleoyl-sn-glycerol 7 μM, ATP 55 μM, 20 min at 22° C.; read-out: IC50 values of examples in in vitro human DGKζ kinase activity inhibition assays
Experimental: Human diacylglycerol kinase zeta (DGKζ) inhibitory activity of compounds of the present invention was quantified employing the human DGKζ kinase activity assay as described in the following paragraphs. In essence, the enzyme activity was measured by quantification of the adenosine-di-phosphate (ADP) generated as a co-product of the enzyme reaction via the “ADP-Glo™ Kinase Assay” kit from the company Promega. This detection system works as follows: In a first step the adenosine-tri-phosphate (ATP) not consumed in the kinase reaction is quantitatively converted to cyclic adenosine-mono-phosphate (cAMP) employing an adenylate cyclase (“ADP-Glo-reagent”), then the adenylate cyclase is stopped and the ADP generated in the kinase reaction is converted to ATP, which subsequently generates in a luciferase-based reaction a glow-luminescence signal (“Kinase Detection Reagent”).
C-terminally FLAG-tagged, recombinant full-length human DGKζ (inhouse expressed in baculovirus infected insect cells, purified using anti-Flag pulldown and size exclusion chromatography) was used as enzyme. As an alternative, commercially available enzyme by Carnabio can be used. As substrate for the kinase, 1,2-dioleoyl-sn-glycerol, reconstituted in octyl-β-D-glucopyranoside micelles, was used. […] Subsequently, 22.55 volumes of a 510 mM solution of octyl-β-D-glucopyranoside (Sigma-Aldrich, Cat. #O8001-10G) in 50 mM MOPS buffer (pH 7.4) were added, and the mixture was sonicated in an ultrasonic bath for 20 s. Then 35 volumes of 50 mM MOPS buffer (pH 7.4) were added to yield a solution of 0.28 mM 1,2 dioleoyl-sn-glycerol and 200 mM octyl-β-D-glucopyranoside, which was aliquoted, flash-frozen in liquid nitrogen, and stored at −20° C. until use.
For the assay 50 nl of a 100-fold concentrated solution of the test compound in dimethyl sulfoxide (DMSO, Sigma) was pipetted into either a white 1536-well or a white low-volume 384-well microtiter plate (both Greiner Bio-One, Frickenhausen, Germany). […] The concentration of DGKζ was adjusted depending of the activity of the enzyme lot and was chosen appropriate to have the assay in the linear range, a typical concentration is about 0.1 nM. The reaction was stopped by the addition of 2.5 μL of “ADP-Glo-reagent” (1 to 1.5 diluted with water) and the resulting mixture was incubated at 22° C. for 1 h to convert the ATP not consumed in the kinase reaction completely to cAMP. Subsequently 2.5 μl of the “kinase detection reagent” (1.2 fold more concentrated than recommended by the producer) were added, the resulting mixture was incubated at 22° C. for 1 h and then the luminescence measured with a suitable measurement instrument (e.g. Viewlux™ from Perkin-Elmer). The amount of emitted light was taken as a measure for the amount of ADP generated and thereby for the activity of the DGKζ.
The data were normalised (enzyme reaction without inhibitor=0% inhibition, all other assay components but no enzyme=100% inhibition).

T1 sequence (Q13574 with tags, fused parts or gaps): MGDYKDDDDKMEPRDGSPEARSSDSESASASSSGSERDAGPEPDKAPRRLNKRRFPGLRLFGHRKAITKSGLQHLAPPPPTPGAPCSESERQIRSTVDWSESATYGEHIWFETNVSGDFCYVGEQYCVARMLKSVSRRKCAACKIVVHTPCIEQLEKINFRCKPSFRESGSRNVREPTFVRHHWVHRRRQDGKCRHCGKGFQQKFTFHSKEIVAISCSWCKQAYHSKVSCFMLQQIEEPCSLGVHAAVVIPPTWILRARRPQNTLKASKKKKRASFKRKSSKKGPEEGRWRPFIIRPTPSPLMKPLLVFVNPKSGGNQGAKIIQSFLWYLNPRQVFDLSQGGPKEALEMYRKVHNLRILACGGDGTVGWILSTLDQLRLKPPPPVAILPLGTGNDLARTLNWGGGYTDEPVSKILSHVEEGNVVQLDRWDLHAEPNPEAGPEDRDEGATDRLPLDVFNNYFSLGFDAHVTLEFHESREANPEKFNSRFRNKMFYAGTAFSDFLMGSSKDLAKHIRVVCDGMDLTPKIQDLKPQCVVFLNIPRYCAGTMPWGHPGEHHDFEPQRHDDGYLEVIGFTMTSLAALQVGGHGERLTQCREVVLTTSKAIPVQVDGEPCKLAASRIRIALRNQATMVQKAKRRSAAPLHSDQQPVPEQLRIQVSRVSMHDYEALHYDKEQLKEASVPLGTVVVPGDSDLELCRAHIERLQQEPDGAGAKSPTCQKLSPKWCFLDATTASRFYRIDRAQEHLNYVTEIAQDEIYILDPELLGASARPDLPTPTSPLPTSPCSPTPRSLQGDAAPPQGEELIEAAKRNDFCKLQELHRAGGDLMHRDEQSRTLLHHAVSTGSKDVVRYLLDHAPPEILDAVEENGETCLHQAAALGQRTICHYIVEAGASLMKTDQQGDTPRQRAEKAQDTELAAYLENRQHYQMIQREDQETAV

SMILES	IC50
CC(C(N)=O)N(c1ccc(F)cc1)c1nc(N)c(C(=O)c2cc(C(=O)NCC3CC3)no2)s1 (racemic) [Example 22, rac-5-[4-amino-2-(N-(2-amino-1-methyl-2-oxo-ethyl)-4-fluoro-anilino)thiazole-5-carbonyl]-N-(cyclopropylmethyl)isoxazole-3-carboxamide]	182 nM
CC(C(N)=O)N(c1ccc(F)cc1)c1nc(N)c(C(=O)c2cc(C(=O)NCC(F)(F)F)no2)s1 (racemic) [Example 23, rac-5-[4-amino-2-(N-(2-amino-1-methyl-2-oxo-ethyl)-4-fluoro-anilino)thiazole-5-carbonyl]-N-(2,2,2-trifluoroethyl)isoxazole-3-carboxamide]	212 nM
CC(C(N)=O)N(c1ccc(F)cc1)c1nc(N)c(C(=O)c2cc(C(=O)NC3(C4CC4)CC3)no2)s1 (racemic) [Example 24, rac-5-[4-amino-2-(N-(2-amino-1-methyl-2-oxo-ethyl)-4-fluoro-anilino)thiazole-5-carbonyl]-N-(1-cyclopropylcyclopropyl)isoxazole-3-carboxamide]	120 nM
CC(C(N)=O)N(c1ccc(F)cc1)c1nc(N)c(C(=O)c2cc(C(=O)NC3CCCC3)no2)s1 (racemic) [Example 25, rac-5-[4-amino-2-(N-(2-amino-1-methyl-2-oxo-ethyl)-4-fluoro-anilino)thiazole-5-carbonyl]-N-cyclopentyl-isoxazole-3-carboxamide]	134 nM
CC(C(N)=O)N(c1ccc(F)cc1)c1nc(N)c(C(=O)c2cc(C(=O)NCCOC(C)(C)C)no2)s1 (racemic) [Example 26, rac-5-[4-amino-2-(N-(2-amino-1-methyl-2-oxo-ethyl)-4-fluoro-anilino)thiazole-5-carbonyl]-N-(2-tert-butoxyethyl)isoxazole-3-carboxamide]	138 nM
CC(C(N)=O)N(c1ccc(F)cc1)c1nc(N)c(C(=O)c2cc(C(=O)N3CCCCC3)no2)s1 (racemic) [Example 27, rac-2-(N-[4-amino-5-[3-(piperidine-1-carbonyl)isoxazole-5-carbonyl]thiazol-2-yl]-4-fluoro-anilino)propanamide]	148 nM
CC(C(N)=O)N(c1ccc(F)cc1)c1nc(N)c(C(=O)c2cc(C(=O)Nc3ccccn3)no2)s1 (racemic) [Example 28, rac-5-[4-amino-2-(N-(2-amino-1-methyl-2-oxo-ethyl)-4-fluoro-anilino)thiazole-5-carbonyl]-N-(2-pyridyl)isoxazole-3-carboxamide]	90 nM
CC(C(N)=O)N(c1ccc(F)cc1)c1nc(N)c(C(=O)c2cc(C(=O)NCCOC(F)(F)F)no2)s1 (racemic) [Example 29, rac-5-[4-amino-2-(N-(2-amino-1-methyl-2-oxo-ethyl)-4-fluoro-anilino)thiazole-5-carbonyl]-N-[2-(trifluoromethoxy)ethyl]isoxazole-3-carboxamide]	97 nM
CC(C(N)=O)N(c1ccc(F)cc1)c1nc(N)c(C(=O)c2cc(C(=O)NC3(C)CCC3)no2)s1 (racemic) [Example 30, rac-5-[4-amino-2-(N-(2-amino-1-methyl-2-oxo-ethyl)-4-fluoro-anilino)thiazole-5-carbonyl]-N-(1-methylcyclobutyl)isoxazole-3-carboxamide]	88 nM
CC(C(N)=O)N(c1ccc(F)cc1)c1nc(N)c(C(=O)c2cc(C(=O)NC34CC(C3)C4)no2)s1 (racemic) [Example 31, rac-5-[4-amino-2-(N-(2-amino-1-methyl-2-oxo-ethyl)-4-fluoro-anilino)thiazole-5-carbonyl]-N-(1-bicyclo[1.1.1]pentanyl)isoxazole-3-carboxamide]	193 nM
CC(C(N)=O)N(c1ccc(F)cc1)c1nc(N)c(C(=O)c2cc(C(=O)NC3CC(F)(F)C3)no2)s1 (racemic) [Example 32, rac-5-[4-amino-2-(N-(2-amino-1-methyl-2-oxo-ethyl)-4-fluoro-anilino)thiazole-5-carbonyl]-N-(3,3-difluorocyclobutyl)isoxazole-3-carboxamide]	93 nM
CC(C(N)=O)N(c1ccc(F)cc1)c1nc(N)c(C(=O)c2cc(C(=O)NC3CCC(F)(F)C3)no2)s1 (racemic) [Example 33, 5-[4-amino-2-(N-(2-amino-1-methyl-2-oxo-ethyl)-4-fluoro-anilino)thiazole-5-carbonyl]-N-(3,3-difluorocyclopentyl)isoxazole-3-carboxamide]	48 nM
CC(C)NC(=O)c1cc(C(=O)c2sc(N(c3ccc(F)cc3)C(C)C(N)=O)nc2N)on1 (racemic) [Example 34, rac-5-[4-amino-2-(N-(2-amino-1-methyl-2-oxo-ethyl)-4-fluoro-anilino)thiazole-5-carbonyl]-N-isopropyl-isoxazole-3-carboxamide]	223 nM
CC(C(N)=O)N(c1ccc(F)cc1)c1nc(N)c(C(=O)c2cc(C(=O)NCC#N)no2)s1 (racemic) [Example 35, rac-5-[4-amino-2-(N-(2-amino-1-methyl-2-oxo-ethyl)-4-fluoro-anilino)thiazole-5-carbonyl]-N-(cyanomethyl)isoxazole-3-carboxamide]	566 nM
COCC(C)NC(=O)c1cc(C(=O)c2sc(N(c3ccc(F)cc3)C(C)C(N)=O)nc2N)on1 (racemic) [Example 36, 5-[4-amino-2-(N-(2-amino-1-methyl-2-oxo-ethyl)-4-fluoro-anilino)thiazole-5-carbonyl]-N-(2-methoxy-1-methyl-ethyl)isoxazole-3-carboxamide]	446 nM
CC(C(N)=O)N(c1ccc(F)cc1)c1nc(N)c(C(=O)c2cc(C(=O)NC3CCCC3(C)C)no2)s1 (racemic) [Example 37, 5-[4-amino-2-(N-(2-amino-1-methyl-2-oxo-ethyl)-4-fluoro-anilino)thiazole-5-carbonyl]-N-(2,2-dimethylcyclopentyl)isoxazole-3-carboxamide]	43 nM
CC(C(N)=O)N(c1ccc(F)cc1)c1nc(N)c(C(=O)c2cc(C(=O)N[C@H]3C[C@@H](F)C3)no2)s1 (mixture of isomers) [Example 38, 5-[4-amino-2-(N-(2-amino-1-methyl-2-oxo-ethyl)-4-fluoro-anilino)thiazole-5-carbonyl]-N-(cis-3-fluorocyclobutyl)isoxazole-3-carboxamide]	344 nM
CC(C(N)=O)N(c1ccc(F)cc1)c1nc(N)c(C(=O)c2cc(C(=O)NC3(C)CCCC3)no2)s1 (racemic) [Example 39, rac-5-[4-amino-2-(N-(2-amino-1-methyl-2-oxo-ethyl)-4-fluoro-anilino)thiazole-5-carbonyl]-N-(1-methylcyclopentyl)isoxazole-3-carboxamide]	53 nM
CC(C(N)=O)N(c1ccc(F)cc1)c1nc(N)c(C(=O)c2cc(C(=O)NC(CF)CF)no2)s1 (racemic) [Example 40, rac-5-[4-amino-2-(N-(2-amino-1-methyl-2-oxo-ethyl)-4-fluoro-anilino)thiazole-5-carbonyl]-N-[2-fluoro-1-(fluoromethyl)ethyl]isoxazole-3-carboxamide]	204 nM
CC(NC(=O)c1cc(C(=O)c2sc(N(c3ccc(F)cc3)C(C)C(N)=O)nc2N)on1)C(F)F (racemic) [Example 41, 5-[4-amino-2-(N-(2-amino-1-methyl-2-oxo-ethyl)-4-fluoro-anilino)thiazole-5-carbonyl]-N-(2,2-difluoro-1-methyl-ethyl)isoxazole-3-carboxamide]	134 nM
